These results are taken from US20220281831A1, “FUSED-GLUTARIMIDE CRBN LIGANDS AND USES THEREOF” (Kymera Therapeutics, Inc., priority 2019, published 2022).

Each structure is given as a SMILES string.

For the assay, the target named is His-tagged CRBN-DDB1 complex (Homo sapiens, UniProt Q96SW2). In words: Time-Resolved Fluorescence Resonance Energy Transfer (TR-FRET / HTRF) CRBN binding assay, displacement of Cy5-labeled thalidomide. As to conditions: His-CRBN-DDB1, Cy5-thalidomide 8 nM, 1 hour room temperature. As to the method: Time-Resolved Fluorescence Resonance Energy Transfer (TR-FRET) Assay.
His-tagged CRBN-DDB1 complex, sequence (Q96SW2 whole entry): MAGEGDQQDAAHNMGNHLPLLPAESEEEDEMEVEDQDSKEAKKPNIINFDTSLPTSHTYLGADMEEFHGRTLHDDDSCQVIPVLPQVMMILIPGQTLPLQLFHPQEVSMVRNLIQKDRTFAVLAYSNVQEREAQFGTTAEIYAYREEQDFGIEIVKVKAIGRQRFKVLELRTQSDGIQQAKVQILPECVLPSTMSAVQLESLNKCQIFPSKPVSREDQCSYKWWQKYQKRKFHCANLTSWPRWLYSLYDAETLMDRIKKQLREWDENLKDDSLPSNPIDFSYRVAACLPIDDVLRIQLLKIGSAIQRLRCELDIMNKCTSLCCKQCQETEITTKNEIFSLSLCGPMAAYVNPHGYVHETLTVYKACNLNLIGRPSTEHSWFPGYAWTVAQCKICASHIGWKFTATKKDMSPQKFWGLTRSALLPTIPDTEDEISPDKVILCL
His-tagged CRBN-DDB1 complex, sequence (Q16531 whole entry partner): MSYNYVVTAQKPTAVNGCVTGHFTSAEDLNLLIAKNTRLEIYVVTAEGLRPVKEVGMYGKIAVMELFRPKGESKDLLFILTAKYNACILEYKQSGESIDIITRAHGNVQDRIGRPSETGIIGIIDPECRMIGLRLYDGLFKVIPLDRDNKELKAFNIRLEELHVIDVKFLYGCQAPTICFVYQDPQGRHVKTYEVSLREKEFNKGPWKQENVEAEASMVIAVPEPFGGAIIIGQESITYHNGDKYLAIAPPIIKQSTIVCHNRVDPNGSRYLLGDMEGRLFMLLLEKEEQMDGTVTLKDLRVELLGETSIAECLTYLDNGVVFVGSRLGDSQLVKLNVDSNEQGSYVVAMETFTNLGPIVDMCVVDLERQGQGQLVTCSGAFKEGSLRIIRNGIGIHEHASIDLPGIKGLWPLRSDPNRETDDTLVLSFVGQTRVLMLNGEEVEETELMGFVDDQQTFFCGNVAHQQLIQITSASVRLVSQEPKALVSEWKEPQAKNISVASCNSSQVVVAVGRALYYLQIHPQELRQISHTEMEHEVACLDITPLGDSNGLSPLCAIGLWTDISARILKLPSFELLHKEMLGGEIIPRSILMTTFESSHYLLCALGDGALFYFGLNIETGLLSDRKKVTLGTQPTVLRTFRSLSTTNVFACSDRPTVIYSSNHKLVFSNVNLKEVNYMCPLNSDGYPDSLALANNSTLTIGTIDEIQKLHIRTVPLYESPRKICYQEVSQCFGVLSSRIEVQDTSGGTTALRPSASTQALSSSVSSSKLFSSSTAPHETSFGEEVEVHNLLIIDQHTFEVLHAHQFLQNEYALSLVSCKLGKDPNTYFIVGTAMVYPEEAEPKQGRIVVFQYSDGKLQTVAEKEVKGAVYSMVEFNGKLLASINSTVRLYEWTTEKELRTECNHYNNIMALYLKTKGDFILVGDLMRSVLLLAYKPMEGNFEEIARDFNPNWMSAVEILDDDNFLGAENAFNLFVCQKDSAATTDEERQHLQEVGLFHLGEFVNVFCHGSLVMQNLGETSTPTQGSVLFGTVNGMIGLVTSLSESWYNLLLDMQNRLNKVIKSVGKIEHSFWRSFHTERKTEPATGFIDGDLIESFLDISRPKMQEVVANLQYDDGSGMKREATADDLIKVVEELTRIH
Equal volumes of His-tagged CRBN-DDB1 complex (56 nM) was mixed with Eu-cryptate labeled Anti-6HIS-monoclonal antibody (50× dilution from the commercial stock solution, Vender: Cisbio, Cat. #61HI2KLA) in a final buffer containing 20 mM HEPES pH 7.0, 150 mM NaCl, 0.005% Tween-20. […] The mixture were incubated at room temperature for 1 hour. FRET signals were measured on an EnVision plate reader (Perkin Elmer) by exciting at 340 nm and recording emission at both 615 nm as no FRET control and 665 nm as the FRET signals with a 60 microsecond delay. FRET efficiency was calculated as the ratio of fluorescent signals at […]. Quantitative loss of FRET efficiency as a function of compound concentrations was fitted by a four-parameter Logistic Function using GraphPad Prism 7.0 and the IC50 values were reported for each compound.
The compound numbers correspond to the compound numbers in Table 1.
Background: TR-FRET usually uses a lanthanide donor and a delayed reading to cut background.
The compound `O=C1Cc2cnc(Br)cc2C(=O)N1` [Compound I-13, 7-bromo-2,4-dihydro-2,6-naphthyridine-1,3-dione] registered a 50% inhibitory concentration (IC50) of more than 100 µM. As for `O=C1NC(=O)c2cc(Br)ccc21` [Compound I-28, 5-bromo-2H-isoindole-1,3-dione], the figure is more than 100 µM. As for `Cc1ccccc1-c1ccc2c(c1)C(=O)NC2=O` [Compound I-30, 5-(2-methylphenyl)-2H-isoindole-1,3-dione], the IC50 is more than 100 µM. In the case of `Cc1ncoc1-c1ccc2c(c1)C(=O)NC2=O` [Compound I-32, 5-(4-methyl-1,3-oxazol-5-yl)-2H-isoindole-1,3-dione], the IC50 was more than 100 µM.

In the case of `Cc1ccccc1-n1cc2c(n1)CC(=O)NC2=O` [Compound I-35, 2-(2-methylphenyl)-5H,7H-pyrazolo[4,3-c]pyridine-4,6-dione], the concentration for half-maximal inhibition (IC50) was more than 100 µM. Regarding `O=c1[nH]c(=O)c2cc(Br)ccc2[nH]1` [Compound I-55, 6-Bromo-1,3-dihydroquinazoline-2,4-dione], the IC50 was more than 100 µM. `O=c1[nH]c(=O)c2c(Br)cccc2[nH]1` [Compound I-56, 5-Bromo-1,3-dihydroquinazoline-2,4-dione] displayed a concentration for half-maximal inhibition (IC50) of more than 100 µM.

Compound `Cn1c(=O)[nH]c(=O)c2cc(Br)ccc21` [Compound I-59, 6-bromo-1-methyl-3H-quinazoline-2,4-dione] had an IC50 of more than 100 µM. With `Cn1c(=O)[nH]c(=O)c2c(Br)cccc21` [Compound I-60, 5-bromo-1-methyl-3H-quinazoline-2,4-dione] the figure was more than 100 µM; with `O=C1CC2(CCN(c3ccc(Br)cc3)CC2)CC(=O)N1` [Compound I-86], more than 100 µM. `COc1cc(F)ccc1N1CCC2(CC1)CC(=O)NC(=O)C2` [Compound I-87] gave a half-inhibitory concentration (IC50) of more than 100 µM.

`COc1cccc(N2CCC3(CC2)CC(=O)NC(=O)C3)c1` [Compound I-88] showed an IC50 of more than 100 µM.

In turn, `O=C1CC2(CCN(c3cccc(Cl)c3)CC2)CC(=O)N1` [Compound I-89] had a 50% inhibitory concentration (IC50) of more than 100 µM. Consider `O=C1CC2(CCN(c3ccc(C(=O)NC4CC4)cc3)CC2)CC(=O)N1` [Compound I-90], for which the IC50 was more than 100 µM. `O=C1CC2(CCN(c3ccc(OCc4ccccc4)cc3)CC2)CC(=O)N1` [Compound I-91] came in with an IC50 of more than 100 µM. In turn, `O=C1CC2(CCN(c3ccc(F)cc3)CC2)CC(=O)N1` [Compound I-92] showed an IC50 of 30 to 100 µM.

For `Cc1ccc(N2CCC3(CC2)CC(=O)NC(=O)C3)cc1` [Compound I-93], the 50% inhibitory concentration (IC50) is more than 100 µM. In the case of `O=C1CC2(CCN(c3cccc4ncccc34)CC2)CC(=O)N1` [Compound I-94], the IC50 is more than 100 µM. As for `CCCOc1ccc(N2CCC3(CC2)CC(=O)NC(=O)C3)cc1` [Compound I-95], the figure is 30 to 100 µM; as for `CCOC(=O)c1cccc(N2CCC3(CC2)CC(=O)NC(=O)C3)c1` [Compound I-96], more than 100 µM. In the case of `O=C1CC2(CCN(c3cccc(O)c3)CC2)CC(=O)N1` [Compound I-97], the IC50 was more than 100 µM.

Compound `O=C1CC2(CCN(c3ccc(-c4ccccc4)cc3)CC2)CC(=O)N1` [Compound I-98] gave an IC50 of more than 100 µM. As for `O=C1CC2(CCN(c3cccc(F)c3)CC2)CC(=O)N1` [Compound I-99], the IC50 is more than 100 µM.

Compound `CC(=O)Nc1cccc(N2CCC3(CC2)CC(=O)NC(=O)C3)c1` [Compound I-100] came in with a half-maximal inhibitory concentration (IC50) of more than 100 µM.

With `CC(C)Oc1cccc(N2CCC3(CC2)CC(=O)NC(=O)C3)c1` [Compound I-101], the IC50 was more than 100 µM. In the case of `O=C1CC2(CCN(c3cccc(OC(F)(F)F)c3)CC2)CC(=O)N1` [Compound I-102], the half-maximal inhibitory concentration (IC50) was more than 100 µM. With `O=C1CC2(CCN(c3ccc(O)cc3)CC2)CC(=O)N1` [Compound I-103] the figure was more than 100 µM. As for `O=C1CC2(CCN(c3cccc4cnccc34)CC2)CC(=O)N1` [Compound I-104], the 50% inhibitory concentration (IC50) was more than 100 µM. `O=C1CC2(CCN(c3ccc(OC(F)(F)F)cc3)CC2)CC(=O)N1` [Compound I-105] yielded a half-maximal inhibitory concentration (IC50) of more than 100 µM. For `O=C1CC2(CCN(c3cccc(C(=O)O)c3)CC2)CC(=O)N1` [Compound I-106], the IC50 is more than 100 µM. `CS(=O)(=O)c1ccc(N2CCC3(CC2)CC(=O)NC(=O)C3)cc1` [Compound I-107]: the IC50 was more than 100 µM.

`CC(C)(C)OC(=O)NCc1ccc(N2CCC3(CC2)CC(=O)NC(=O)C3)cc1` [Compound I-108] gave an IC50 of 30 to 100 µM. Compound `O=C1CC2(CCN(c3cccc4cccnc34)CC2)CC(=O)N1` [Compound I-109] returned a half-inhibitory concentration (IC50) of more than 100 µM.

As to `O=C1CC2(CCN(c3ccc(F)cc3Cl)CC2)CC(=O)N1` [Compound I-110], the IC50 is more than 100 µM.

As for `N#Cc1ccccc1N1CCC2(CC1)CC(=O)NC(=O)C2` [Compound I-111], the IC50 was more than 100 µM.

`O=Cc1ccc(N2CCC3(CC2)CC(=O)NC(=O)C3)cc1` [Compound I-112]: the IC50 is more than 100 µM. `Nc1ccc(N2CCC3(CC2)CC(=O)NC(=O)C3)cc1` [Compound I-113] registered a half-maximal inhibitory concentration (IC50) of more than 100 µM. Turning to `O=C1CC2(CCN(c3ccc(Oc4ccccc4)cc3)CC2)CC(=O)N1` [Compound I-114], the half-inhibitory concentration (IC50) fell in the range of 30 to 100 µM. Compound `O=C1CC2(CCN(c3ccccc3Cl)CC2)CC(=O)N1` [Compound I-115] registered an IC50 of more than 100 µM.

Compound `NC(=O)c1ccc(N2CCC3(CC2)CC(=O)NC(=O)C3)cc1` [Compound I-116] showed an IC50 of more than 100 µM.

In the case of `COc1ccc2cc(N3CCC4(CC3)CC(=O)NC(=O)C4)ccc2c1` [Compound I-117], the half-maximal inhibitory concentration (IC50) is more than 100 µM. Compound `O=C1CC2(CCN(c3ccc4c(c3)CCO4)CC2)CC(=O)N1` [Compound I-118] yielded an IC50 of more than 100 µM. For the compound `O=C1CC2(CCN(c3ccc4c(c3)OCO4)CC2)CC(=O)N1` [Compound I-119], the 50% inhibitory concentration (IC50) was more than 100 µM. As for `O=C1NC(=O)[C@@H]2CN(c3ccc(-c4ccccc4)c(F)c3)C[C@H]12` [Compound I-120], the half-maximal inhibitory concentration (IC50) is more than 100 µM.

`Cc1ccccc1N1C[C@@H]2C(=O)NC(=O)[C@@H]2C1` [Compound I-121] yielded an IC50 of more than 100 µM. For `COC(=O)c1ccc(N2C[C@@H]3C(=O)NC(=O)[C@@H]3C2)cc1` [Compound I-122], the IC50 was more than 100 µM. Compound `O=C1NC(=O)[C@@H]2CN(c3ccc(Br)cc3)C[C@H]12` [Compound I-123] yielded an IC50 of 30 to 100 µM. `COc1cccc(N2C[C@@H]3C(=O)NC(=O)[C@@H]3C2)c1` [Compound I-125] came in with an IC50 of more than 100 µM.

Compound `O=C1NC(=O)[C@@H]2CN(c3cccc(Cl)c3)C[C@H]12` [Compound I-126] displayed a 50% inhibitory concentration (IC50) of more than 100 µM.

`O=C(NC1CC1)c1ccc(N2C[C@@H]3C(=O)NC(=O)[C@@H]3C2)cc1` [Compound I-127] returned a concentration for half-maximal inhibition (IC50) of more than 100 µM. For `O=C1NC(=O)[C@@H]2CN(c3ccc(OCc4ccccc4)cc3)C[C@H]12` [Compound I-128], the IC50 is more than 100 µM. `O=C1NC(=O)[C@@H]2CN(c3ccc(F)cc3)C[C@H]12` [Compound I-129] showed a half-inhibitory concentration (IC50) of more than 100 µM. Turning to `Cc1ccc(N2C[C@@H]3C(=O)NC(=O)[C@@H]3C2)cc1` [Compound I-130], the half-maximal inhibitory concentration (IC50) lay in the range of 30 to 100 µM. Take `O=C1NC(=O)[C@@H]2CN(c3cccc4ncccc34)C[C@H]12` [Compound I-131]: the IC50 is more than 100 µM. As for `O=C1NC(=O)[C@@H]2CN(c3cccc(O)c3)C[C@H]12` [Compound I-134], the figure is more than 100 µM; as for `O=C1NC(=O)[C@@H]2CN(c3cccc(F)c3)C[C@H]12` [Compound I-135], more than 100 µM. `CC(=O)Nc1cccc(N2C[C@@H]3C(=O)NC(=O)[C@@H]3C2)c1` [Compound I-136] had a half-inhibitory concentration (IC50) of more than 100 µM. `CC(C)Oc1cccc(N2C[C@@H]3C(=O)NC(=O)[C@@H]3C2)c1` [Compound I-137] gave an IC50 of more than 100 µM.

`CCCOc1ccc(N2C[C@@H]3C(=O)NC(=O)[C@@H]3C2)cc1` [Compound I-138] showed an IC50 of more than 100 µM. `O=C1NC(=O)[C@@H]2CN(c3cccc(OC(F)(F)F)c3)C[C@H]12` [Compound I-139]: the IC50 was more than 100 µM. `O=C1NC(=O)[C@@H]2CN(c3ccc(O)cc3)C[C@H]12` [Compound I-140] gave a 50% inhibitory concentration (IC50) of more than 100 µM. `O=C1NC(=O)[C@@H]2CN(c3cccc4cnccc34)C[C@H]12` [Compound I-141] had an IC50 of more than 100 µM. Regarding `O=C1NC(=O)[C@@H]2CN(c3ccc(OC(F)(F)F)cc3)C[C@H]12` [Compound I-142], the 50% inhibitory concentration (IC50) is more than 100 µM. As for `O=C(O)c1cccc(N2C[C@@H]3C(=O)NC(=O)[C@@H]3C2)c1` [Compound I-143], the 50% inhibitory concentration (IC50) is more than 100 µM. As to `CS(=O)(=O)c1ccc(N2C[C@@H]3C(=O)NC(=O)[C@@H]3C2)cc1` [Compound I-144], the half-inhibitory concentration (IC50) is more than 100 µM. As for `CC(C)(C)OC(=O)NCc1ccc(N2C[C@@H]3C(=O)NC(=O)[C@@H]3C2)cc1` [Compound I-145], the figure is more than 100 µM; as for `O=C1NC(=O)[C@@H]2CN(c3cccc4cccnc34)C[C@H]12` [Compound I-146], more than 100 µM.

With `O=C1NC(=O)[C@@H]2CN(c3ccc(F)cc3Cl)C[C@H]12` [Compound I-147], the IC50 was more than 100 µM. In the case of `N#Cc1ccccc1N1C[C@@H]2C(=O)NC(=O)[C@@H]2C1` [Compound I-148], the IC50 is more than 100 µM. As for `O=Cc1ccc(N2C[C@@H]3C(=O)NC(=O)[C@@H]3C2)cc1` [Compound I-149], the figure is more than 100 µM.

Usually IC50 stands for the concentration that gives 50% inhibition. A high value points to lower potency.
